Source: patent EP4726029A1, “ADIPOCYTE GROWTH INHIBITOR” (Watanabe Oyster Laboratory Co., Ltd., priority 2023, dated 2024)

Tests used:
Assay type in all cases: cell-based, mouse
3T3-L1 adipocytes [1] = test: Adipogenesis assay with inhibitors of intracellular signaling pathways (AdipoRed Assay Reagent)
Method: In yet another experiment, to search for the involvement of intracellular signaling factors, the culture fluid was substituted with a culture fluid containing DMEM, which contained 10% FBS and insulin (10 µg/ml), and a vehicle (1% ethanol) or DHMBA (1 or 10 µM) two days after the differentiation culture. The cells were cultured for another two days in a culture fluid containing signaling inhibitory factors, such as genistein (1 or 10 µM), Wortmannin (10 or 100 nM), PD98059 (1 or 10 µM), or Bay 11-7082 (1 or 10 nM). After the cell culture, the amount of intracellular lipid (triglyceride) formation was quantified using AdipoRed Assay Reagent (Lonza, Walkersville, MD, USA) [19 to 21]. Fluorescence was measured at an excitation of 485 nm and an emission of 570 nm using a 96-well plate reader (µQuant, Bio-Tek Instruments).

3T3-L1 preadipocytes [2] = test: Cell proliferation assay (count of living cells, trypan blue)
Method: […] Furthermore, in an experiment to measure cell proliferation, 3T3-L1 preadipocytes (1 × 10^5/ml per well of a 24-well plate) were cultured for three days in a culture fluid containing a vehicle (1% ethanol as the final concentration) or DHMBA (0.1, 1, 10, 100, or 1000 µM).
(§1) After the culture, adhering cells were separated from each well by adding an aseptic solution containing 0.05% trypsin and EDTA (0.1 ml per well) in PBS (Thermo Fisher Scientific, Waltham, MA, USA) not containing Ca^2+/Mg^2+ and incubating the cells for two minutes. Afterward, 0.9 ml of DMEM containing 10% FBS was added to each well to prepare cell suspensions. In order to measure the number of living cells, a medium (0.1 ml) containing suspension cells was mixed with 0.1 ml of 0.5% trypan blue staining solution. The living cells were counted under a microscope (Olympus MTV-3) using a cell counter (Line Seiki H-102P, Tokyo, Japan) and a hemocytometer (Sigma-Aldrich, St. Louis, Missouri). Two counts were averaged in each measurement. The number of cells was shown as the number per well of a culture plate.

3T3-L1 preadipocytes [3] = test: Cell death assay (number of cells after sub-confluence); conditions: 1000 µM, another two days after sub-confluence (Fig. 2C)
Method: In an experiment to measure cell death, 3T3-L1 preadipocytes (1×10^5/ml per well of a 24-well plate) were cultured for three days in a DMEM culture fluid containing 10% BCS and 1% P/S. The cells that reached sub-confluence were cultured for another 48 hours in the presence of a vehicle (1% ethanol as the final concentration) or DHMBA (0.1, 1, 10, 100, or 1000 µM) to examine the variation in the number of cells.
as §1

3T3-L1 preadipocytes [4] = test: Number of cells in the differentiation process; conditions: 1 or 10 µM
Method: (§2) In order to understand the influence of DHMBA on the differentiation of 3T3-L1 preadipocytes, 3T3-L1 preadipocytes (5×10^4 cells/ml per well of a 24-well plate) were cultured for three days, at which point they reached sub-confluence, in 10% bovine calf serum (BCS). After the cells reached sub-confluence (on day 0), the culture fluid was changed to a DMEM differentiation-inducing culture fluid containing 10% FBS, 1% P/S, 0.5 mM IBMX, 1 µM dexamethasone, and insulin (10 µg/ml), and the cells were cultured for another two days. Two days later, to promote adipogenesis, the culture fluid was replaced with a fresh differentiation culture fluid of DMEM containing 10% FBS and insulin (10 µg/ml), and the cells were cultured for another two days.
First, to quantify the effect of DHMBA on the number of cells, a vehicle (1% ethanol as the final concentration) or DHMBA (1 or 10 µM) was added to the differentiation-inducing culture fluid on day 0 of differentiation starting culture or after two days. After zero to two days of the differentiation culture or after two to four days of the culture, the number of cells adhered to a culture dish was measured as described in the previous section.

3T3-L1 adipocytes [5] = test: Fat accumulation assay (Oil Red O staining); conditions: 0.1, 1, 10, or 100 µM
Method: as §2, with “Two days later, to promote adipogenesis, the culture fluid was replaced with a fresh differentiation culture fluid of DMEM containing 10% FBS and insulin (10 µg/ml), and the cells were cultured for another two days.” left out
In an additional experiment to understand the effect of DHMBA on the content of lipids in 3T3-L1 adipocytes, a vehicle (1% ethanol as the final concentration) or DHMBA (0.1, 1, 10, or 100 µM) was included in the differentiation-inducing culture fluid to culture the cells from day 0 of the differentiation-inducing culture to four days later. In order to quantify the lipid content (triglycerides) after the cell culture, the cells in the 24-well plate were gently washed twice with PBS and fixed with 4% formaldehyde dissolved in PBS for 30 minutes. […] Furthermore, in order to quantify the lipid content, the Oil Red stain was extracted with isopropanol. […] The eluate was used to measure the absorbance at 510 nm with a spectrophotometer (µQuant, Bio-Tek Instruments).

3T3-L1 adipocytes [6] = test: Adipogenesis assay (AdipoRed Assay Reagent); conditions: 1, 10, or 100 µM
Method: 3T3-L1 preadipocytes (10^4 cells/0.2 ml per well of a 96-well plate) were cultured for three days, at which point they reached sub-confluence, in DMEM containing 10% BCS and 1% P/S. After the sub-confluence (on day 0), the cells were cultured in a differentiation-inducing culture fluid containing 10% FBS, 1% P/S, 0.5 mM IBMX, and 1 µM dexamethasone with the inclusion of a vehicle (1% ethanol as the final concentration) or DHMBA (0.1, 1, 10, or 100 µM). Two days later, the culture fluid was replaced with a DMEM culture fluid containing insulin (10 µg/ml) without containing 10% FBS or DHMBA, and then, the cells were cultured for another two days.
In another experiment, the cells were cultured in a differentiation culture fluid not containing DHMBA on day 0 of differentiation-inducing culture. Two days later, the culture fluid was replaced with a DMEM culture fluid containing 10% FBS and insulin (10 µg/ml) that contained any of a vehicle (1% ethanol as the final concentration) and DHMBA (0.1, 1, 10, or 100 µM), and then, the cells were cultured for another two days.

Akt = test: Western blotting of protein level in adipocytes; conditions: DHMBA 10 µM, day 2 to 4 of differentiation (Fig. 7)
Method: (§3) 3T3-L1 preadipocytes (1×10^6 cells/100 mm dish used, in 10 ml of culture fluid) were cultured for three days, at which point they reached sub-confluence, in DMEM containing 10% BCS and 1% P/S. Then, the cells were cultured for two days in a DMEM differentiation culture fluid containing 10% FBS, 1% P/S, 0.5 mM IBMX, and 1 µM dexamethasone. […] After the culture, the culture dish was washed three times with cold PBS (10 ml) to eliminate floating cells and dead cells, and adhering cells were scraped using a cell lysis solution containing protease and protein phosphatase inhibitors (Roche Diagnostics, Indianapolis, IN, USA). Next, the cell lysates were centrifuged for 10 minutes at 17,000 × g at 4°C. The concentration of proteins in the supernatant was quantified using Bio-Rad Protein Assay Dye (Bio-Rad Laboratories, Inc., Hercules, CA, USA) with bovine serum albumin as a standard. The extracted protein samples were stored at -80°C until they were used.
(§4) As indicated in the previous invention, a sample of 40 micrograms of supernatant proteins per lane was separated by SDS polyacrylamide gel electrophoresis (SDS-PAGE, 12%) and transferred to a PVDF membrane. Specific antibodies for target proteins, such as PPARγ (C26H12) (catalog No. 2435, rabbit antibody), C/EBPα (catalog No. 2295, rabbit), phosphoinositide 3-kinase p110α (PI3K; catalog No. 4255), Akt (catalog No. 9272, rabbit antibody), mitogen-activated protein kinase (MAPK; catalog No. 4695, rabbit antibody), phosphorylated MAPK (catalog No. […]) 4370, rabbit antibody), mechanistic target of rapamycin (mTOR, catalog No. 4517, mouse antibody), NF-κB p65 (catalog No. 3034, rabbit antibody), and β-actin (catalog No. 3700, rabbit antibody), were obtained from Cell Signaling Technology (Danvers, MA, USA). The PVDF membrane was incubated overnight at 4°C using the above protein antibodies for immunoblotting.
(§5) After the incubation, the PVDF membrane was incubated at room temperature for 60 minutes in a horseradish peroxidase-conjugated secondary antibody (Santa Cruz Biotechnology, Inc., mouse sc-2005 or rabbit sc-2305; 1:1,000 dilution). Protein bands transferred to the PVDF membrane were detected on an X-ray film using a chemiluminescent substrate (catalog No. 34577, Thermo Scientific, Rockford, IL, USA). Four independent experiments were conducted for data, their films were scanned with an Epson Perfection 1660 photo scanner, and the bands were quantified using ImageJ2 software (National Institutes of Health, Bethesda, MD, USA).

C/EBPα = test: Western blotting of protein level in adipocytes; conditions: DHMBA 10 µM, day 2 to 4 of differentiation (Fig. 7)
Method: as §3, §4, §5

MAPK = test: Western blotting of protein level in adipocytes; conditions: DHMBA 10 µM, day 2 to 4 of differentiation (Fig. 7)
Method: as §3, §4, §5

NF-κB p65 = test: Western blotting of protein level in adipocytes; conditions: DHMBA 10 µM, day 2 to 4 of differentiation (Fig. 7)
Method: as §3, §4, §5

PI3 kinase 100α = test: Western blotting of protein level in adipocytes; conditions: DHMBA 10 µM, day 2 to 4 of differentiation (Fig. 7)
Method: as §3, §4, §5

PPARγ = test: Western blotting of protein level in adipocytes; conditions: DHMBA 10 µM, day 2 to 4 of differentiation (Fig. 7)
Method: as §3, §4, §5

mTOR = test: Western blotting of protein level in adipocytes; conditions: DHMBA 10 µM, day 2 to 4 of differentiation (Fig. 7)
Method: as §3, §4, §5

phosphorylated MAPK = test: Western blotting of protein level in adipocytes; conditions: DHMBA 10 µM, day 2 to 4 of differentiation (Fig. 7)
Method: as §3, §4, §5

O=c1c(-c2ccc(O)cc2)coc2cc(O)cc(O)c12 [genistein, reference compound]
lipogenesis (3T3-L1 adipocytes [1]; genistein 1 or 10 µM alone, two days from day 2 of differentiation (Fig. 6A)): not altered

COC[C@H]1OC(=O)c2coc3c2[C@@]1(C)C1=C(C3=O)[C@@H]2CCC(=O)[C@@]2(C)C[C@H]1OC(C)=O [Wortmannin, reference compound]
adipogenesis (3T3-L1 adipocytes [1]): inhibited

COc1cccc(-c2cc(=O)c3ccccc3o2)c1N [PD98059, reference compound]
adipogenesis (3T3-L1 adipocytes [1]; PD98059 1 or 10 µM (Fig. 6C)): inhibited

Cc1ccc(S(=O)(=O)C=CC#N)cc1 [Bay 11-7082, reference compound]
adipogenesis (3T3-L1 adipocytes [1]; Bay 11-7082 1 or 10 nM (Fig. 6D)): inhibited

COc1c(O)cc(CO)cc1O [DHMBA, 3,5-dihydroxy-4-methoxybenzyl alcohol]
Cell proliferation (3T3-L1 preadipocytes [2]; DHMBA 10 µM, culture for three to five days (Fig. 2A)): suppressed | Cell proliferation (3T3-L1 preadipocytes [2]; cultured for three days, concentrations ranging from 1 µM to 1000 µM (Fig. 2B)): suppressed | number of cells (cell death) (3T3-L1 preadipocytes [3]): reduced | number of cells (3T3-L1 preadipocytes [4]; day 0 to 2 in culture fluid with differentiation-inducing factors (Fig. 3B)): not varied | number of cells (3T3-L1 preadipocytes [4]; day 2 to 4 in culture fluid containing insulin (Fig. 3C)): not varied | lipid accumulation (Oil Red O stained images) (3T3-L1 adipocytes [5]; on day 0 and after two days of differentiation culture (Fig. 4A)): reduced | lipid content in the cells (absorbance at 510 nm) (3T3-L1 adipocytes [5]; on day 0 and after two days of differentiation culture (Fig. 4B)): decrease | adipogenesis (3T3-L1 adipocytes [6]; two to four days after the differentiation, late stage (Fig. 5C)): suppression | adipogenesis (3T3-L1 adipocytes [6]; zero to four days after the differentiation (Fig. 5A)): suppressed | adipogenesis (3T3-L1 adipocytes [6]; zero to two days after the differentiation (Fig. 5B)): suppression | inhibition of adipogenesis (3T3-L1 adipocytes [1]; DHMBA 1 or 10 µM in the presence of Bay 11-7082 1 or 10 nM (Fig. 6D)): further enhanced | inhibition of adipogenesis (3T3-L1 adipocytes [1]; DHMBA 1 or 10 µM in the presence of PD98059 1 or 10 µM (Fig. 6C)): further enhanced | inhibition of adipogenesis (3T3-L1 adipocytes [1]; DHMBA 1 or 10 µM in the presence of Wortmannin 10 or 100 nM (Fig. 6B)): further enhanced | adipogenesis (3T3-L1 adipocytes [1]; DHMBA 1 or 10 µM in the presence of genistein (Fig. 6A)): inhibited | level of Akt (Akt): reduction | level of C/EBPα (C/EBPα): reduced | level of MAPK (MAPK): reduction | level of NF-κB p65 (NF-κB p65): reduced | level of PI3 kinase 100α (PI3 kinase 100α): reduction | level of PPARγ (PPARγ): reduced | level of mTOR (mTOR): reduction | level of phosphorylated MAPK (phosphorylated MAPK): reduction
